Data: ChEMBL document CHEMBL5260839 (J Med Chem, 2019)
Active and inactive are the calls of the source. No cut-off for these calls is given here. Peptide text beside a SMILES is read from it. * marks the point of attachment. Cbz = O=C(OCc1ccccc1)*

Legend:
RS4-11 [1] = assay: cells; conditions: Homo sapiens, RS4-11, 96 h
[2] = molecular target: T1, E3 ubiquitin-protein ligase Mdm2 (Homo sapiens, UniProt Q00987); assay: Inhibition of MDM2 in human RS4-11 cells harbouring wildtype p53 assessed as fold change in MDM2 level at 3 uM incubate for 4 hrs by Western blot analysis (reference value: […]); format: cell-based
Target sequence in this assay (Q00987 whole entry, looked up): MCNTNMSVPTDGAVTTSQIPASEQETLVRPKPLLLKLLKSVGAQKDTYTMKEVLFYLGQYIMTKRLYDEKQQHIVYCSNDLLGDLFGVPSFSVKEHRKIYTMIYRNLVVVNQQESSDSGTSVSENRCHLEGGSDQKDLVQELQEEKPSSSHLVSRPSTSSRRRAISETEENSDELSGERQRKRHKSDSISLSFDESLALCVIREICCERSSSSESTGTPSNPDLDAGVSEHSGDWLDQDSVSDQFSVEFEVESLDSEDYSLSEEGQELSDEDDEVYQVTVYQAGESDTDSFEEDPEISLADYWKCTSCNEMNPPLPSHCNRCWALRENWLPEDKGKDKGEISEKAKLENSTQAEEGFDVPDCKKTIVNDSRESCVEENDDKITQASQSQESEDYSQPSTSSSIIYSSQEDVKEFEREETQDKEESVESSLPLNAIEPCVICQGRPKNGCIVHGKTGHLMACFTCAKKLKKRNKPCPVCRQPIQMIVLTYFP

[3] = molecular target: T1, E3 ubiquitin-protein ligase Mdm2; assay: Inhibition of MDM2 in human RS4-11 cells harbouring wildtype p53 assessed as fold change in p53 accumulation at 3 uM incubated for 4 hrs by Western blot analysis (reference value: 1); format: cell-based
Target sequence in this assay (Q00987 whole entry, looked up): as above

RS4-11 [4] = assay: Potency index, ratio of MI-1061 IC50 to test compound IC50 for inhibition of cell growth in human RS4-11 cells incubated for 4 days by lactate dehydrogenase based WST-8 assay; format: functional; conditions: time 4 day
RS4-11 [5] = assay: Potency index, ratio of MI-1242 IC50 to test compound IC50 for inhibition of cell growth in human RS4-11 cells incubated for 4 days by lactate dehydrogenase based WST-8 assay; format: functional; conditions: time 4 day
[6] = molecular target: T1, E3 ubiquitin-protein ligase Mdm2; assay: Inhibition of MDM2 in human RS4-11 cells harbouring wildtype p53 assessed as fold change in MDM2 level at 10 uM incubate for 4 hrs by Western blot analysis (reference value: […]); format: cell-based
Target sequence in this assay (Q00987 whole entry, looked up): as above

[7] = molecular target: T1, E3 ubiquitin-protein ligase Mdm2; assay: Inhibition of MDM2 in human RS4-11 cells harbouring wildtype p53 assessed as fold change in p53 accumulation at 10 uM incubated for 4 hrs by Western blot analysis (reference value: […]); format: cell-based
Target sequence in this assay (Q00987 whole entry, looked up): as above

RS4-11 [8] = assay: Induction of apoptosis in human RS4-11 cells incubated for 24 hrs by Annexin-V/PI staining based flow cytometric analysis; format: functional, cell-based
RS4-11 [9] = assay: Inhibition of cell growth in human RS4-11 cells incubated for 4 days in the presence of lenalidomide by Lactate dehydrogenase based WST-8 assay; format: functional; conditions: time 4.0 day
MV4-11 = assay: Inhibition of cell growth in human MV4-11 cells incubated for 4 days in the presence of lenalidomide by Lactate dehydrogenase based WST-8 assay; format: functional; conditions: time 4.0 day
RS4-11 [10] = assay: Antitumor activity against human RS4-11 cells xenografted in mouse assessed as reduction in tumor growth at 100 mg/kg, po administered daily for 5 days starting from day 26; format: functional, organism-based; conditions: time 5.0 day
[11] = Toxicity in mouse xenografted with human RS4-11 cells assessed as weight loss at 100 mg/kg, po administered once daily for 5 days; format: organism-based; conditions: in vivo, 120 h, time 5 day
[12] = Toxicity in mouse xenografted with human RS4-11 cells assessed as signs of toxicity at 100 mg/kg, po administered once daily for 5 days; format: organism-based; conditions: in vivo, 120 h, time 5 day
MOLM-13 = assay: cells; conditions: Homo sapiens, MOLM-13, 96 h
SIG-M5 = assay: cells; conditions: Homo sapiens, SIG-M5, 96 h
MONO-MAC-6 = assay: cells; conditions: Homo sapiens, MONO-MAC-6, 96 h
KG-1 = assay: cells; conditions: Homo sapiens, KG-1, 96 h
[13] = molecular target: T1, E3 ubiquitin-protein ligase Mdm2; assay: Binding affinity to recombinant human MDM2 (1 to 118 residues) assessed as inhibition constant using FAM-tagged p-53 based peptide as substrate by fluorescence polarization based assay
Target sequence in this assay (Q00987 whole entry): as the sequence (Q00987 whole entry, looked up) above

[14] = molecular target: T1, E3 ubiquitin-protein ligase Mdm2; assay: Inhibition of MDM2 in human RS4-11 cells harbouring wildtype p53 assessed as fold change in MDM2 level at 1 uM incubate for 4 hrs by Western blot analysis (reference value: […]); format: cell-based
Target sequence in this assay (Q00987 whole entry, looked up): as above

[15] = molecular target: T1, E3 ubiquitin-protein ligase Mdm2; assay: Inhibition of MDM2 in human RS4-11 cells harbouring wildtype p53 assessed as fold change in p53 accumulation at 1 uM incubated for 4 hrs by Western blot analysis (reference value: 1); format: cell-based
Target sequence in this assay (Q00987 whole entry, looked up): as above

IC50 (RS4-11 [1]) | SMILES | also measured
100 nM | O=C1CCC(N2C(=O)c3cccc(NCCCCCCCNC(=O)c4ccc(NC(=O)[C@@H]5NC6(CCCCC6)[C@@]6(C(=O)Nc7cc(Cl)ccc76)[C@H]5c5cccc(Cl)c5F)cc4)c3C2=O)C(=O)N1 (some centres not stated) | 
29 nM | O=C1CCC(N2C(=O)c3cccc(CCCCCNC(=O)c4ccc(NC(=O)[C@@H]5NC6(CCCCC6)[C@@]6(C(=O)Nc7cc(Cl)ccc76)[C@H]5c5cccc(Cl)c5F)cc4)c3C2=O)C(=O)N1 (some centres not stated) | 
12 nM | O=C1CCC(N2C(=O)c3cccc(NCCCCCNC(=O)c4ccc(NC(=O)[C@@H]5NC6(CCCCC6)[C@@]6(C(=O)Nc7cc(Cl)ccc76)[C@H]5c5cccc(Cl)c5F)cc4)c3C2=O)C(=O)N1 (some centres not stated) | 
10 nM | O=C1CCC(N2C(=O)c3cccc(NCCCCNC(=O)c4ccc(NC(=O)[C@@H]5NC6(CCCCC6)[C@@]6(C(=O)Nc7cc(Cl)ccc76)[C@H]5c5cccc(Cl)c5F)cc4)c3C2=O)C(=O)N1 (some centres not stated) | Ratio IC50 (RS4-11 [4]): 10; Ratio IC50 (RS4-11 [5]): 10
22 nM | O=C1CCC(N2C(=O)c3cccc(NCCCCCCNC(=O)c4ccc(NC(=O)[C@@H]5NC6(CCCCC6)[C@@]6(C(=O)Nc7cc(Cl)ccc76)[C@H]5c5cccc(Cl)c5F)cc4)c3C2=O)C(=O)N1 (some centres not stated) | 
3.9 nM | O=C1CCC(N2Cc3c(C#CCCNC(=O)c4ccc(NC(=O)[C@@H]5NC6(CCCCC6)[C@@]6(C(=O)Nc7cc(Cl)ccc76)[C@H]5c5cccc(Cl)c5F)cc4)cccc3C2=O)C(=O)N1 (some centres not stated) | 
68.4 nM | O=C1CCC(N2C(=O)c3cccc(NC(=O)c4ccc(NC(=O)[C@@H]5NC6(CCCCC6)[C@@]6(C(=O)Nc7cc(Cl)ccc76)[C@H]5c5cccc(Cl)c5F)cc4)c3C2=O)C(=O)N1 (some centres not stated) | 
9 nM | O=C1CCC(N2C(=O)c3cccc(NCCCNC(=O)c4ccc(NC(=O)[C@@H]5NC6(CCCCC6)[C@@]6(C(=O)Nc7cc(Cl)ccc76)C5c5cccc(Cl)c5F)cc4)c3C2=O)C(=O)N1 (single isomer, unassigned) | 
5 nM | O=C1CCC(N2Cc3cccc(NCCCCNC(=O)c4ccc(NC(=O)[C@@H]5NC6(CCCCC6)[C@@]6(C(=O)Nc7cc(Cl)ccc76)[C@H]5c5cccc(Cl)c5F)cc4)c3C2=O)C(=O)N1 (some centres not stated) | 
5 nM | O=C1CCC(N2Cc3cc(CC#CCCCNC(=O)c4ccc(NC(=O)[C@@H]5NC6(CCCCC6)[C@@]6(C(=O)Nc7cc(Cl)ccc76)[C@H]5c5cccc(Cl)c5F)cc4)ccc3C2=O)C(=O)N1 (some centres not stated) | 

Further lines, the molecule ahead of its results:

SMILES | IC50 (RS4-11 [1]) | also measured
NS(=O)(=O)OC[C@@H]1C[C@@H](n2ccc3c(N[C@H]4CCc5ccccc54)ncnc32)C[C@@H]1O |  | fold change (FC) [2]: 2.4; fold change (FC) [3]: 5.1
Cc1ncsc1-c1ccc([C@H](C)NC(=O)[C@@H]2C[C@@H](O)CN2C(=O)[C@@H](NC(=O)CCOCCOCCNC(=O)c2ccc(NC(=O)[C@@H]3NC4(CCCCC4)[C@@]4(C(=O)Nc5cc(Cl)ccc54)[C@H]3c3cccc(Cl)c3F)cc2)C(C)(C)C)cc1 | 500 nM | 
O=C1CCC(N2C(=O)c3cccc(NCCOCCOCCNC(=O)c4ccc(NC(=O)[C@@H]5NC6(CCCCC6)[C@@]6(C(=O)Nc7cc(Cl)ccc76)[C@H]5c5cccc(Cl)c5F)cc4)c3C2=O)C(=O)N1 (some centres not stated) | 7 nM | Ratio IC50 (RS4-11 [4]): 10; Ratio IC50 (RS4-11 [5]): 10
O=C1CCC(N2Cc3c(C#CCCCNC(=O)c4ccc(NC(=O)[C@H]5NC6(CCCCC6)[C@]6(C(=O)Nc7cc(Cl)ccc76)[C@@H]5c5cccc(Cl)c5F)cc4)cccc3C2=O)C(=O)N1 (some centres not stated) | > 10000 nM | 
CC(C)C[C@@H](C=O)NC(=O)[C@H](CC(C)C)NC(=O)[C@H](CC(C)C)NC(=O)OCc1ccccc1 (Cbz-Leu-Leu-Leu-aldehyde) |  | fold change (FC) [6]: 2.9; fold change (FC) [7]: 6.9
O=C(O)c1ccc(NC(=O)[C@@H]2NC3(CCCCC3)[C@@]3(C(=O)Nc4cc(Cl)ccc43)[C@H]2c2cccc(Cl)c2F)cc1 |  | Activity (RS4-11 [8]): Dose-Dependent Effect; inhibition (RS4-11 [9]): Active; inhibition (MV4-11): Active; Activity (RS4-11 [10]): Active; Activity [11]: Non-Toxic; Activity [12]: Non-Toxic; IC50 (MOLM-13): 76.8 nM; IC50 (SIG-M5): 106 nM; IC50 (MONO-MAC-6): > 10000 nM; IC50 (KG-1): > 10000 nM
O=C1CCC(N2C(=O)c3cccc(NCCNC(=O)c4ccc(NC(=O)[C@@H]5NC6(CCCCC6)[C@@]6(C(=O)Nc7cc(Cl)ccc76)[C@H]5c5cccc(Cl)c5F)cc4)c3C2=O)C(=O)N1 (some centres not stated) | 15 nM | 
O=C1CCC(N2Cc3ccc(CC#CCCCNC(=O)c4ccc(NC(=O)[C@@H]5NC6(CCCCC6)[C@@]6(C(=O)Nc7cc(Cl)ccc76)[C@H]5c5cccc(Cl)c5F)cc4)cc3C2=O)C(=O)N1 (some centres not stated) | 5 nM | 
Cc1ncsc1-c1ccc([C@H](C)NC(=O)[C@@H]2C[C@@H](O)CN2C(=O)[C@@H](NC(=O)CCCOCCOCCOCCNC(=O)c2ccc(NC(=O)[C@@H]3NC4(CCCCC4)[C@@]4(C(=O)Nc5cc(Cl)ccc54)[C@H]3c3cccc(Cl)c3F)cc2)C(C)(C)C)cc1 | 340 nM | 
CNC(=O)c1ccc(NC(=O)[C@@H]2NC3(CCCCC3)[C@@]3(C(=O)Nc4cc(Cl)ccc43)[C@H]2c2cccc(Cl)c2F)cc1 | 89 nM | Ki [13]: 2.7 nM
O=C1CCC(N2C(=O)c3cccc(NCCOCCNC(=O)c4ccc(NC(=O)[C@@H]5NC6(CCCCC6)[C@@]6(C(=O)Nc7cc(Cl)ccc76)[C@H]5c5cccc(Cl)c5F)cc4)c3C2=O)C(=O)N1 (some centres not stated) | 8 nM | 
CC(C)C[C@H](NC(=O)[C@H](CCc1ccccc1)NC(=O)CN1CCOCC1)C(=O)N[C@@H](Cc1ccccc1)C(=O)N[C@@H](CC(C)C)C(=O)[C@@]1(C)CO1 |  | fold change (FC) [14]: 3.6; fold change (FC) [15]: 8.5
Cc1ncsc1-c1ccc([C@H](C)NC(=O)[C@@H]2C[C@@H](O)CN2C(=O)[C@@H](NC(=O)CCCCNC(=O)c2ccc(NC(=O)[C@@H]3NC4(CCCCC4)[C@@]4(C(=O)Nc5cc(Cl)ccc54)[C@H]3c3cccc(Cl)c3F)cc2)C(C)(C)C)cc1 | 1200 nM | 
CN1C(=O)CCC(N2Cc3c(C#CCCCNC(=O)c4ccc(NC(=O)[C@@H]5NC6(CCCCC6)[C@@]6(C(=O)Nc7cc(Cl)ccc76)[C@H]5c5cccc(Cl)c5F)cc4)cccc3C2=O)C1=O (some centres not stated) | 1200 nM | 
O=C1CCC(N2C(=O)c3cccc(NCCOCCOCCOCCNC(=O)c4ccc(NC(=O)[C@@H]5NC6(CCCCC6)[C@@]6(C(=O)Nc7cc(Cl)ccc76)[C@H]5c5cccc(Cl)c5F)cc4)c3C2=O)C(=O)N1 (some centres not stated) | 5 nM | 
